Test results: patent US6627441B1, “Increasing levels of growth regulator and/or water stress during embryo development” (priority 1998, dated 2003)

Experiments:
[1] = tested on: Norway spruce somatic embryos; assay: Norway spruce culture with raised ABA and PEG (Example 5); format: cell-based
Experimental: Norway spruce was cultured using the same protocol as developed for white spruce. Thus, somatic embryos from full hormone suspension culture were transferred to hormone-free liquid culture medium (half-strength Litvay's medium, 3% sucrose) for one week, then transferred (0.75 mL of 20% suspension) to maturation medium in petri dishes.
The first medium contained PEG adjusted to 290 mmol/kg and 20 μM ABA. After two weeks, the cultures were transferred on their filter paper supports to fresh medium of the same composition, or to medium containing PEG adjusted to 400 mmol/kg and 30 μM ABA. After a further two weeks (i e., the fourth week of culture), the somatic embryos were transferred either to PEG media at a water potential of 400 mmol/kg and 40 μM ABA, or to PEG medium of 540 mmol/kg and 40 μM ABA. Somatic embryos were also plated on medium containing 20 μM ABA and no PEG.

[2] = tested on: white spruce somatic embryos; assay: Effect of water stress and ABA on somatic embryo moisture contents (Example 4); format: cell-based
Experimental: Water potentials were measured for liquid media containing various osmotica at a range of concentrations, which were plotted on a curve. Determinations were made using a vapour pressure osmometer (Wescor). Moisture content determinations were done using methods described previously by Attree et al. (U.S. Pat. No. 5,464,769).
Embryos were cultured on medium containing 3% sucrose and ABA, with additional osmoticum adjusted to vary water potentials, as shown in Table 4.
Embryos were cultured for six weeks and moisture contents determined. Determinations for each treatment were made weekly, with three replicates per treatment. 50 embryos per replicate were used. In some instances, particularly for the control with low osmoticum, insufficient embryos were produced. In these cases, the minimum number of embryos used per replicate was thirty. For weeks 0 to 2, the embryos were too small to be used for moisture content determinations, so whole tissue was used instead.

[3] = tested on: white spruce somatic embryos; assay: Effect of ABA concentration and PEG medium water potential on maturation frequency and precocious germination (Example 1); format: cell-based; conditions: for mean maturation frequency / precocious germination (appearance of embryos): 6 weeks; for mean maturation frequency: embryos per dish; for total of means (maturation frequency): summed over PEG medium water potentials 230-310
Experimental: For maturation, the ½ LM basal medium was supplemented with 250 mg/L glutamine and 500 mg/L casein hydrolysate and 3% sucrose. Amino acids were filter sterilized and added to cooled media. ABA (Sigma A 2784) stock solutions were prepared by first dissolving ABA in concentrated NaOH. ABA was added after autoclaving. The purity and source of (+)-ABA can influence results. Purer (+)-ABA would be required in lower amounts. Actual levels need to be determined depending on the source of ABA, the components of the culture medium, and species being studied. […] It is also possible to complement the maturation medium by incorporating auxin and/or cytokinin, or plant growth promoters having auxin-like and cytokinin-like activity. Similarly, gibberellin is in principle also a suitable complementary growth promoter, and an empirical approach taking into account such factors as plant species, environment, and so forth should be used to determine the concentration etc. of gibberellin.
For maturation, the solidified culture medium in 9 cm petri dishes was overlaid with a filter paper support to facilitate transfers to fresh media. Onto this was pipetted 0.75 mL of a 20% suspension of precultured cells resuspended in fresh hormone-free preculture medium with 3% sucrose. Cultures were incubated at 25 ° C. in the dark and transferred to fresh medium every two weeks.
Thus, immature white spruce somatic embryos were cultured on medium containing 8, 16, 24, and 32 μM ABA. […] Embryos were transferred to fresh medium of the same composition and were cultured for a total of six weeks. The number of embryos per dish were then counted and the appearance of the embryos was recorded. Results are for three to eight dishes per treatment. A total of 2439 mature embryos were recorded.

[4] = tested on: somatic embryos; assay: High intensity water stressing and ABA, inhibition of precocious germination (Example 3); format: cell-based, white spruce and Norway spruce
Experimental: Somatic embryos were plated on medium containing PEG adjusted to 290 mmol/kg PEG and 16 μM ABA then either transferred to fresh medium of the same composition every two weeks, or transferred every two weeks to medium containing increasing ABA and PEG as outlined in Table 3.

[5] = treatment 3: PEG medium 290 mmol/kg with constant ABA 20 μM, six weeks

CC1=CC(=O)CC(C)(C)[C@@]1(O)/C=C/C(C)=C\C(=O)O [ABA, abscisic acid]
appearance, precocious germination ([1]; 20 μM ABA, no PEG, after six weeks): green and elongated | appearance, precocious germination ([1]; 290 mmol/kg PEG medium and 20 μM ABA, after six weeks): green and some had dark green tips to their cotyledons | appearance, precocious germination ([1]; completed the 400 mmol/kg PEG, 40 μM ABA treatment, six weeks): yellow with a greenish tinge | appearance, precocious germination ([1]; completed the 540 mmol/kg PEG, 40 μM ABA treatment, six weeks): small and white with no evidence of precocious germination | greening of embryos ([2]; treatment 1: ABA 20 to 40 μM, 3% sucrose, 190 mmol/kg, after six weeks): evidence of greening | greening of embryos [2, 5]: slight greening of cotyledons | moisture content of somatic embryos [2, 5]: below 55% | moisture content of somatic embryos ([2]; treatment 4: PEG medium 290 mmol/kg with increasing ABA 20, 30, 40 μM, compared with treatment 3): further slight reductions in moisture content | greening of embryos ([2]; treatment 5: ABA to 40 μM, PEG medium to 400 mmol/kg): No greening | moisture content of somatic embryos ([2]; treatment 5: ABA to 40 μM, PEG medium to 400 mmol/kg after week two, compared with treatment 4): a further reduction in moisture content | greening of embryos ([2]; treatment 6: ABA to 40 μM, PEG medium to 540 mmol/kg): No greening | yield of mature somatic embryos ([2]; treatment 6: PEG water potential raised to 540 mmol/kg with ABA to 40 μM): 300-350 mature somatic embryos per dish | moisture content of somatic embryos ([2]; treatment 6: PEG water potential raised to 540 mmol/kg with ABA to 40 μM, end of six-week culture): ~40% | mean maturation frequency ([3]; ABA 8 μm, PEG medium water potential 230 (mmol/kg)): 29.7 | mean maturation frequency ([3]; ABA 8 μm, PEG medium water potential 260 (mmol/kg)): 53.0 | mean maturation frequency ([3]; ABA 8 μm, PEG medium water potential 290 (mmol/kg)): 44.3 | mean maturation frequency ([3]; ABA 8 μm, PEG medium water potential 310 (mmol/kg)): 10.7 | precocious germination (appearance of embryos) ([3]; ABA 8 μm, PEG medium water potential 310 (mol/kg)): greening | total of means (maturation frequency) ([3]; ABA 8 μm): 137.7 | mean maturation frequency ([3]; ABA 16 μm, PEG medium water potential 230 (mmol/kg)): 15.6 | mean maturation frequency ([3]; ABA 16 μm, PEG medium water potential 260 (mmol/kg)): 44.0 | precocious germination (appearance of embryos) ([3]; ABA 16 μm, PEG medium water potential 260 (mol/kg)): greening | mean maturation frequency ([3]; ABA 16 μm, PEG medium water potential 290 (mmol/kg)): 20.1 | mean maturation frequency ([3]; ABA 16 μm, PEG medium water potential 310 (mmol/kg)): 0 | total of means (maturation frequency) ([3]; ABA 16 μm): 79.7 | mean maturation frequency ([3]; ABA 24 μm, PEG medium water potential 230 (mmol/kg)): 28.0 | precocious germination (appearance of embryos) ([3]; ABA 24 μm, PEG medium water potential 230 (mol/kg)): greening | mean maturation frequency ([3]; ABA 24 μm, PEG medium water potential 260 (mmol/kg)): 22.8 | mean maturation frequency ([3]; ABA 24 μm, PEG medium water potential 290 (mmol/kg)): 28.7 | mean maturation frequency ([3]; ABA 24 μm, PEG medium water potential 310 (mmol/kg)): 1.0 | total of means (maturation frequency) ([3]; ABA 24 μm): 80.5 | mean maturation frequency ([3]; ABA 32 μm, PEG medium water potential 230 (mmol/kg)): 28.0 | mean maturation frequency ([3]; ABA 32 μm, PEG medium water potential 260 (mmol/kg)): 22.7 | mean maturation frequency ([3]; ABA 32 μm, PEG medium water potential 290 (mmol/kg)): 8.6 | mean maturation frequency ([3]; ABA 32 μm, PEG medium water potential 310 (mmol/kg)): 2.5 | total of means (maturation frequency) ([3]; ABA 32 μm): 61.8 | precocious germination ([4]; maintained on 290 mmol/kg PEG and 16 μM ABA, fresh medium every two weeks, week 10): precociously germinated | precocious germination ([4]; schedule of increasing ABA (16 to 56 μM) and PEG (290 to 650 mmol/kg), biweekly transfer, 10 weeks): no evidence of precocious germination
